Reference: patent publication US8530493B2, “Indolopyridines as Eg5 kinesin modulators” (4SC AG, priority 2006, dated 2013)

Experiments:
[1] = test system: RKO p27 or p21 induced (arrested) colon adenocarcinoma cells; experiment: Alamar Blue cell viability assay, RKO p27 or p21 induced (arrested); type: cell-based; settings: Homo sapiens, RKOp27, Table B2, cells arrested by Ponasterone A, 72 hours, read-out: −log EC50 RKO p27 or p21 induced (arrested) (converted)
Procedure, shortened: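 RKOp21 or RKOp27 subclones in DMEM/10% FCS with 10 μM Ponasterone A to induce p21/p27 arrest, seeded 24 h before compound; triplicate 72 h exposure at 37 °C. Alamar Blue fluorescence (544/590 nm) as % of untreated (1% DMSO) cells; EC50 from dose-response curves, reported as −log EC50 (mol/l).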

[2] = test system: RKO p27 or p21 uninduced (proliferating) colon adenocarcinoma cells; experiment: Alamar Blue cell viability assay, RKO p27 or p21 uninduced (proliferating); type: cell-based; settings: Homo sapiens, RKOp27, 72 h, Table B2, anti-proliferative/cytotoxic activity, read-out: −log EC50 RKO p27 or p21 uninduced (proliferating) (converted)
Procedure, shortened: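 Viability read by Alamar Blue fluorescence (ex 544, em 590 nm), normalised to untreated wells, after 72 h, 37° C, 5% CO2 compound exposure in triplicate. Cells were uninduced (no Ponasterone A), proliferating RKO colon carcinoma p27 or p21 subclones in DMEM with 10% FCS; values are −log EC50 (mol/l).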

SMILES	EC50 [1]	EC50 [2]
CC(=O)N1CCN(CCN2C(=O)N3[C@H](c4cccc(O)c4)c4[nH]c5ccc(Cl)cc5c4C[C@@]3(C)C2=O)CC1 (racemic) [Example 114, (3aSR,10RS)-2-[2-(4-Acetyl-piperazin-1-yl)-ethyl]-6-chloro-10-(3-hydroxy-phenyl)-3a-methyl-3a,4,9,10-tetrahydro-2,9,10a-triaza-cyclopenta[b]fluorene-1,3-dione]	≥ 316 nM	≤ 39.8 nM
C=CCN(C)CCCN1C(=O)N2[C@H](c3cccc(O)c3)c3[nH]c4ccc(OC)cc4c3C[C@@]2(C)C1=O (racemic) [Example 88, (3aSR,10RS)-2-[3-(Allyl-methyl-amino)-propyl]-10-(3-hydroxy-phenyl)-6-methoxy-3a-methyl-3a,4,9,10-tetrahydro-2,9,10a-triaza-cyclopenta[b]fluorene-1,3-dione]	≥ 3160 nM	≤ 39.8 nM
CNCCCN1C(=O)N2[C@H](c3cccc(O)c3)c3[nH]c4ccc(Cl)cc4c3C[C@@]2(C)C1=O (racemic) [Example 130, (3aSR,10RS)-6-Chloro-10-(3-hydroxy-phenyl)-3a-methyl-2-(3-methylamino-propyl)-3a,4,9,10-tetrahydro-2,9,10a-triaza-cyclopenta[b]fluorene-1,3-dione]	≥ 316 nM	≤ 39.8 nM
C[C@@]12Cc3c([nH]c4ccc(Cl)cc34)[C@@H](c3cccc(O)c3)N1C(=O)N(CCN1CCCCCC1)C2=O (racemic) [Example 104, (3aSR,10RS)-2-(2-Azepan-1-yl-ethyl)-6-chloro-10-(3-hydroxy-phenyl)-3a-methyl-3a,4,9,10-tetrahydro-2,9,10a-triaza-cyclopenta[b]fluorene-1,3-dione]	≥ 3160 nM	≤ 39.8 nM
C[C@@]12Cc3c([nH]c4ccc(Cl)cc34)[C@@H](c3cccc(O)c3)N1C(=O)N(CCN1CCOCC1)C2=O (racemic) [Example 120, (3aSR,10RS)-6-Chloro-10-(3-hydroxy-phenyl)-3a-methyl-2-(2-morpholin-4-ylethyl)-3a,4,9,10-tetrahydro-2,9,10a-triaza-cyclopenta[b]fluorene-1,3-dione]	≥ 316 nM	39.8 to 251 nM
COc1ccc2[nH]c3c(c2c1)C[C@@]1(C)C(=O)N(CCCNC(C)C)C(=O)N1[C@@H]3c1cccc(O)c1 (racemic) [Example 67, (3aSR,10RS)-10-(3-Hydroxy-phenyl)-2-(3-isopropylamino-propyl)-6-methoxy-3a-methyl-3a,4,9,10-tetrahydro-2,9,10a-triaza-cyclopenta[b]fluorene-1,3-dione]	≥ 3160 nM	≤ 39.8 nM
C[C@@]12Cc3c([nH]c4ccc(Cl)cc34)[C@@H](c3cccc(O)c3)N1C(=O)N(CCN1CCC(F)(F)C1)C2=O (racemic) [Example 129, (3aSR,10RS)-6-Chloro-2-[2-(3,3-difluoro-pyrrolidin-1-yl)-ethyl]-10-(3-hydroxy-phenyl)-3a-methyl-3a,4,9,10-tetrahydro-2,9,10a-triaza-cyclopenta[b]fluorene-1,3-dione]	≥ 316 nM	39.8 to 251 nM
C[C@@]12Cc3c([nH]c4ccc(Cl)cc34)[C@@H](c3cccc(O)c3)N1C(=O)N(CCNCC1CC1)C2=O (racemic) [Example 108, (3aSR,10RS)-6-Chloro-2-[2-(cyclopropylmethyl-amino)-ethyl]-10-(3-hydroxy-phenyl)-3a-methyl-3a,4,9,10-tetrahydro-2,9,10a-triaza-cyclopenta[b]fluorene-1,3-dione]	≥ 316 nM	≤ 39.8 nM
CC(C)CNCCCN1C(=O)N2[C@H](c3cccc(O)c3)c3[nH]c4ccc(Cl)cc4c3C[C@@]2(C)C1=O (racemic) [Example 135, (3aSR,10RS)-6-Chloro-10-(3-hydroxy-phenyl)-2-(3-isobutylamino-propyl)-3a-methyl-3a,4,9,10-tetrahydro-2,9,10a-triaza-cyclopenta[b]fluorene-1,3-dione]	≥ 3160 nM	≤ 39.8 nM
CCN(CC)CCN1C(=O)N2[C@H](c3cccc(O)c3)c3[nH]c4ccc(OC)cc4c3C[C@@]2(C)C1=O (racemic) [Example 69, (3aSR,10RS)-2-(2-Diethylamino-ethyl)-10-(3-hydroxy-phenyl)-6-methoxy-3a-methyl-3a,4,9,10-tetrahydro-2,9,10a-triaza-cyclopenta[b]fluorene-1,3-dione]	≥ 3160 nM	≤ 39.8 nM
COc1ccc2[nH]c3c(c2c1)C[C@@]1(C)C(=O)N(CCN(C)CCO)C(=O)N1[C@@H]3c1cccc(O)c1 (racemic) [Example 118, (3aSR,10RS)-2-{2-[(2-Hydroxy-ethyl)-methyl-amino]-ethyl}-10-(3-hydroxy-phenyl)-6-methoxy-3a-methyl-3a,4,9,10-tetrahydro-2,9,10a-triaza-cyclopenta[b]fluorene-1,3-dione]	≥ 316 nM	≤ 39.8 nM
COc1ccc2[nH]c3c(c2c1)C[C@@]1(C)C(=O)N(CCCN2CC=CC2)C(=O)N1[C@@H]3c1cccc(O)c1 (racemic) [Example 149, (3aSR,10RS)-2-[3-(2,5-Dihydro-pyrrol-1-yl)-propyl]-10-(3-hydroxy-phenyl)-6-methoxy-3a-methyl-3a,4,9,10-tetrahydro-2,9,10a-triaza-cyclopenta[b]fluorene-1,3-dione]	≥ 316 nM	≤ 39.8 nM
C#CCNCCN1C(=O)N2[C@H](c3cccc(O)c3)c3[nH]c4ccc(OC)cc4c3C[C@@]2(C)C1=O (racemic) [Example 85, (3aSR,10RS)-10-(3-Hydroxy-phenyl)-6-methoxy-3a-methyl-2-(2-prop-2-ynylamino-ethyl)-3a,4,9,10-tetrahydro-2,9,10a-triaza-cyclopenta[b]fluorene-1,3-dione]	≥ 3160 nM	39.8 to 251 nM
C=CCNCCN1C(=O)N2[C@H](c3cccc(O)c3)c3[nH]c4ccc(Cl)cc4c3C[C@@]2(C)C1=O (racemic) [Example 115, (3aSR,10RS)-2-(2-Allylamino-ethyl)-6-chloro-10-(3-hydroxy-phenyl)-3a-methyl-3a,4,9,10-tetrahydro-2,9,10a-triaza-cyclopenta[b]fluorene-1,3-dione]	≥ 316 nM	≤ 39.8 nM
CC1CCN(CCN2C(=O)N3[C@H](c4cccc(O)c4)c4[nH]c5ccc(Cl)cc5c4C[C@@]3(C)C2=O)CC1 (racemic) [Example 98, (3aSR,10RS)-6-Chloro-10-(3-hydroxy-phenyl)-3a-methyl-2-[2-(4-methyl-piperidin-1-yl)-ethyl]-3a,4,9,10-tetrahydro-2,9,10a-triaza-cyclopenta[b]fluorene-1,3-dione]	≥ 3160 nM	≤ 39.8 nM
CC(C)CNCCN1C(=O)N2[C@H](c3cccc(O)c3)c3[nH]c4ccc(Cl)cc4c3C[C@@]2(C)C1=O (racemic) [Example 99, (3aSR,10RS)-6-Chloro-10-(3-hydroxy-phenyl)-2-(2-isobutylamino-ethyl)-3a-methyl-3a,4,9,10-tetrahydro-2,9,10a-triaza-cyclopenta[b]fluorene-1,3-dione]	≥ 3160 nM	≤ 39.8 nM
C[C@@]12Cc3c([nH]c4ccc(Cl)cc34)[C@@H](c3cccc(O)c3)N1C(=O)N(CCNC1CC1)C2=O (racemic) [Example 102, (3aSR,10RS)-6-Chloro-2-(2-cyclopropylamino-ethyl)-10-(3-hydroxy-phenyl)-3a-methyl-3a,4,9,10-tetrahydro-2,9,10a-triaza-cyclopenta[b]fluorene-1,3-dione]	≥ 3160 nM	≤ 39.8 nM
